The structures appear in SMILES notation.

Experiment [1] has as its system Wnt ligand-induced signaling in HEK293 cells. Briefly: Wnt-responsive Super-TOpFlash (STF) luciferase reporter gene assay. The format is cell-based. The settings on record: Homo sapiens, Wnt3A condition medium. Here is the method: Cellular Reporter Gene Assay to Determine Compound Inhibition of Wnt Signaling Activity
Compound activity in inhibiting Wnt ligand-induced signaling was measured using a Wnt-responsive Super-TOpFlash (STF) luciferase reporter gene assay in HEK293 cells. On day 1 of the assay, cells were plated at a density of 8000 cells per well of 384-well plate in 25 μl medium containing 5% fetal bovine serum (FBS). On the second day, […] condition medium (CM) produced from mouse L cells was added to the cells to induce Wnt signaling, followed by addition of 5 μL of compounds each well in 10-point serial dilution. On the third day, the luciferase activity was measured by the Bright-Glo™ Luciferase Assay System following manufacture's protocol (Promega, E2620). The Inhibition was calculated as: (Maximum Wnt-induced signaling−Sample)/(Maximum Wnt-induced signaling−Background)*100. “Maximum Wnt-induced signaling” is the STF signal level induced by 20% Wnt3A CM without compound; and “Background” is the STF signal level without the addition of Wnt3A CM or compound.
In general terms: A reporter such as luciferase makes a cellular process visible.

For experiment [2], the system named is Axin2 protein in SW480 cells. Briefly: Cellular ELISA assay of Axin2 protein stabilization. It counts as cell-based. The following applies: Homo sapiens, 24 hrs, read-out: Axin AC50. As for the experimental part:
Cellular ELISA Assay to Determine Compound Effect on Stabilizing the Axin2 Protein Compound activity in stabilizing the Axin2 protein was measured by Sandwich Enzyme-Linked Immuosorbent (ELISA) assay in the colorectal cell line SW480. 30,000 SW480 cells were seeded per well in 96-well plate and incubated overnight prior to compound treatment. […] Cells were then washed with 100 μL of cold Phosphate Buffer Saline (PBS), and lysed in 125 μl of cold 1× lysis buffer (Cell Signaling Technology, 9803) supplemented with Protease inhibitor (Roche, 11836170) and Phosphatase inhibitors (Sigma, P2850, P5726). For the ELISA assay, anti Axin-2 capture antibody (Strategic Diagnostics) antibody was diluted to a concentration of 1 μg/ml (1:1000) in Carbonate Coating buffer, pH 9.2 (Sigma, C3041-50CAP). […], of the diluted anti Axin-2 capture antibody per well was then used to coat the 96-well ELISA plate (Thermo Electron Corp., MicroLite 1 flat bottom plate #7571) overnight at 4° C. […] After blocking, plates were then washed three times with 300 μl/well of wash solution. 100 μL of prepared SW480 cell lysate was then added to each well and incubated at room temperature for 2 hours while shaking gently. After washing, 100 μL of Biotinylated anti-Axin2 antibody (CST, 2151) was added to each well and incubated room temperature for 2 hours. 100 μL of Streptavidin-HRP (R&D systems, DY998) diluted 1:200 in 1% BSA/PBS was then added in each well and incubate for 30 mins at R/T in the dark.

Experiment [3] concerns the target human tankyrase 1 PARP catalytic domain, TNKS1P (Homo sapiens (Human), UniProt O95271). The experiment is described as follows: TNKS1 autoparsylation assay (LC/MS detection of nicotinamide). The settings on record: read-out: TNKS1 AP IC50, 20 nM enzyme, 250 μM β-NAD+, 60 min.
Experiment [4] concerns the target tankyrase 2 protein PARP domain, TNKS2P (Homo sapiens (Human), UniProt Q9H2K2). Briefly: TNKS2 autoparsylation assay (LC/MS detection of nicotinamide). The settings on record: read-out: TNKS2 AP IC50, 20 nM enzyme, 250 μM β-NAD+, 60 min.
Protocol: Biochemical Assay to Determine Compound Inhibition of TNKS Enzyme Activity
The autoparsylation activity of the TNKS 1/2 or PARP1/2 enzymes was measured by the liquid chromatography-mass spectrometry (LC/MS) detection of nicotinamide as readout. Compound activity in inhibiting the TNKS and PARP autoparsylation was evaluated by IC50 measurements. […] For the background control wells, 10 μL of the 5× quenching solution per well was added prior to the addition of β-NAD^+. The % Inhibition was calculated as: (Control−Sample)/(Control−Background)*100.
Experiment [5] deals with Non-small lung cancer ABC-1 cells. The experiment is described as follows: Cellular proliferation assay (CellTiter-Glo). It counts as cell-based. The settings on record: Homo sapiens, 72 h; ABC-1 cells, 3 days of compound treatment; read-out: ABC-1 IC50. Background: Cellular ATP, detected with luciferase, serves as a proxy for viable cell number.
Protocol: Cellular Proliferation Assay to Determine Compound Inhibition of Cancer Cell Growth
Viable cells were measured after 3 days of compound treatment using the CellTiter-Glo assay (Promega, G7570). Assay was performed following the manufacture protocol.

Chain of tankyrase 2 protein PARP domain, TNKS2P (Q9H2K2 959-1164): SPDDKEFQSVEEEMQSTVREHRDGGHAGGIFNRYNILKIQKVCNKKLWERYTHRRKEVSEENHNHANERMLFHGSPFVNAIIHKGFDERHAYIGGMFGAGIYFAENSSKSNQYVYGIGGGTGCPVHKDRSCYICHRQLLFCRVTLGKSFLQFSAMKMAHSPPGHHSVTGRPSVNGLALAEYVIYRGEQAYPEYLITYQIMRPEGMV
Chain of human tankyrase 1 PARP catalytic domain, TNKS1P (O95271 1112-1317): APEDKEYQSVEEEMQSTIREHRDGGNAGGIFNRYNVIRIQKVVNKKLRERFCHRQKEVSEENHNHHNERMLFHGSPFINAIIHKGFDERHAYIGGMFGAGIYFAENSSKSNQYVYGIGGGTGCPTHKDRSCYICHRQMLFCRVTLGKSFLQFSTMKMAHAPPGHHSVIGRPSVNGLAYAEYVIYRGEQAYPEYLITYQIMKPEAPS

As to `COc1ccc2c(c1)CC1(CCN(CC(=O)N(Cc3nc4c(c(=O)[nH]3)COCC4)CC3CC3)CC1)C2=O` [Example 63, N-(Cyclopropylmethyl)-2-(5-methoxy-1-oxo-1,3-dihydrospiro[indene-2,4′-piperidine]-1′-yl)-N-((4-oxo-4,5,7,8-tetrahydro-3H-pyrano[4,3-d]pyrimidin-2-yl)methyl)acetamide], the IC50 in experiment [1] is 0.0119 ± 0.0031 µM; in experiment [3] it was 0.01 ± 0.0014 µM; in experiment [4], 0.001 ± 0.0014 µM; in experiment [5] it was 0.158 µM. In addition, in experiment [2], the AC50 amounted to 0.137 ± 0.031 µM.
For `COc1ccc2c(c1)CC1(CCN(CC(=O)N(Cc3nc4c(c(=O)[nH]3)COCC4)CC(F)F)CC1)C2=O` [Example 64, N-(2,2-Difluoro-ethyl)-2-(5-methoxy-1-oxo-1,3-dihydrospiro[indene-2,4′-piperidine]-1′-yl)-N-((4-oxo-4,5,7,8-tetrahydro-3H-pyrano[4,3-d]pyrimidin-2-yl)methyl)acetamide], the IC50 in experiment [1] was 0.0012 ± 0.0005 µM; in experiment [3], 0.01 ± 0.0014 µM; in experiment [4], 0.0025 ± 0.0007 µM; in experiment [5] it was 0.012 µM. For the same compound, the concentration at half-maximal activity (AC50) in experiment [2] was 0.009 ± 0.003 µM.
Consider `O=C(CN1CCC2(CCc3ccccc3C2=O)CC1)NCc1nc2c(c(=O)[nH]1)COCC2` [Example 65, 2-(1-oxo-3,4-dihydro-1H-spiro[naphthalene-2,4′-piperidine]-1′-yl)-N-((4-oxo-4,5,7,8-tetrahydro-3H-pyrano[4,3-d]pyrimidin-2-yl)methyl)acetamide], for which the IC50 in experiment [1] is 0.0007 ± 0.0002 µM; in experiment [3], 3.1 ± 0.4 µM; in experiment [4], 0.76 ± 0.015 µM; in experiment [5], 0.026 µM. Moreover, the half-maximal activity concentration (AC50) in experiment [2] amounted to 0.012 ± 0.003 µM.
Turning to `O=C(c1ccccc1)C1CCN(CC(=O)N(Cc2nc3c(c(=O)[nH]2)COCC3)CC(F)F)CC1` [Example 68, 2-(4-Benzoyl-piperidin-1-yl)-N-(2,2-difluoro-ethyl)-N-(4-oxo-3,5,7,8-tetrahydro-4H-pyrano[4,3-d]pyrimidin-2-ylmethyl)-acetamide], the IC50 came out at 0.0052 ± 0.0008 µM in experiment [1], 0.031 ± 0.001 µM in experiment [3], 0.005 ± 0.001 µM in experiment [4] and 0.075 µM in experiment [5]. For the same compound, in experiment [2], the half-maximal activity concentration (AC50) was found to be 0.041 ± 0.007 µM.
For `O=C(c1ccc(Cl)cc1)C1CCN(CC(=O)N(Cc2nc3c(c(=O)[nH]2)COCC3)CC(F)F)CC1` [Example 69, 2-[4-(4-Chloro-benzoyl)-piperidin-1-yl]-N-(2,2-difluoro-ethyl)-N-(4-oxo-3,5,7,8-tetrahydro-4H-pyrano[4,3-c]pyrimidin-2-ylmethyl)-acetamide], the IC50 was found to be 0.02 ± 0.009 µM in experiment [1], 0.035 ± 0.004 µM in experiment [3], 0.018 ± 0.001 µM in experiment [4] and 0.709 µM in experiment [5]. Besides, the concentration at half-maximal activity (AC50) in experiment [2] is 0.93 ± 0.45 µM.
Take `COc1ccccc1C(=O)C1CCN(CC(=O)N(Cc2nc3c(c(=O)[nH]2)COCC3)CC(F)F)CC1` [Example 72, N-(2,2-Difluoro-ethyl)-2-[4-(2-methoxy-benzoyl)-piperidin-1-yl]-N-(4-oxo-3,5,7,8-tetrahydro-4H-pyrano[4,3-d]pyrimidin-2-ylmethyl)-acetamide]: the IC50 in experiment [1] was 0.0087 ± 0.0003 µM; in experiment [3], 0.42 ± 0.11 µM; in experiment [4] it was 0.085 ± 0.02 µM; in experiment [5] it was 0.096 µM. Further, the AC50 in experiment [2] is 0.052 ± 0.028 µM.
In the same order, the values of `O=C(c1cccc(OC(F)(F)F)c1)C1CCN(CC(=O)N(Cc2nc3c(c(=O)[nH]2)COCC3)CC(F)F)CC1` [Example 74, N-(2,2-Difluoro-ethyl)-N-(4-oxo-3,5,7,8-tetrahydro-4H-pyrano[4,3-d]pyrimidin-2-ylmethyl)-2-[4-(3-trifluoromethoxy-benzoyl)-piperidin-1-yl]-acetamide] are 0.0351 ± 0.0034 µM, 0.155 ± 0.015 µM, 0.038 ± 0.004 µM, 0.59 µM and 0.508 ± 0.05 µM.
As for `O=C(c1ccccn1)C1CCN(CC(=O)N(Cc2nc3c(c(=O)[nH]2)COCC3)CC2CC2)CC1` [Example 76, N-Cyclopropylmethyl-N-(4-oxo-3,5,7,8-tetrahydro-4H-pyrano[4,3-d]pyrimidin-2-ylmethyl)-2-[4-(pyridine-2-carbonyl)-piperidin-1-yl]-acetamide], the IC50 in experiment [1] is 0.032 ± 0.01 µM; in experiment [3], 0.105 ± 0.001 µM; in experiment [4], 0.032 ± 0.001 µM; in experiment [5], 0.236 µM. Besides, in experiment [2], the AC50 was found to be 0.176 ± 0.014 µM.
For the compound `O=C(c1ccc(OCc2ccccc2)cc1)C1CCN(CC(=O)N(Cc2nc3c(c(=O)[nH]2)COCC3)CC2CC2)CC1` [Example 77], the IC50 in experiment [1] came to 0.055 ± 0.008 µM; in experiment [3] it was 1.17 ± 0.05 µM; in experiment [4], 0.764 ± 0.051 µM; in experiment [5], 2.71 µM. Moreover, the AC50 in experiment [2] is 4.48 ± 0.09 µM.
With `O=C(CN1CCC(C(=O)N2CCc3ccccc3C2)CC1)NCc1nc2c(c(=O)[nH]1)COCC2` [Example 79, N-((4-Oxo-4,5,7,8-tetrahydro-3H-pyrano[4,3-d]pyrimidin-2-yl)methyl)-2-(4-(1,2,3,4-tetrahydroisoquinoline-2-carbonyl)piperidin-1-yl)acetamide], the IC50 in experiment [1] was 0.0065 ± 0.0027 µM; in experiment [3], 3.02 ± 0.049 µM; in experiment [4] it was 0.815 ± 0.028 µM; in experiment [5], 0.026 µM. For the same compound, the AC50 in experiment [2] was determined as 0.027 ± 0.003 µM.
Turning to `COc1ccc(C(=O)C2CCN(CC(=O)NCc3nc4c(c(=O)[nH]3)COCC4)CC2)cc1OC` [Example 90, 2-[4-(3,4-Dimethoxy-benzoyl)-piperidin-1-yl]-N-(4-oxo-3,5,7,8-tetrahydro-4H-pyrano[4,3-c]pyrimidin-2-ylmethyl)-acetamide], the concentration for half-maximal inhibition (IC50) in experiment [1] was found to be 0.0103 ± 0.0008 µM; in experiment [3] it was 0.042 ± 0.002 µM; in experiment [4], 0.018 µM; in experiment [5], 0.038 µM. Moreover, in experiment [2], the AC50 was 0.02 ± 0.005 µM.
Take `O=C(CN1CCC(C(=O)c2ccc3c(c2)OCO3)CC1)NCc1nc2c(c(=O)[nH]1)COCC2` [Example 92, 2-[4-(Benzo[1,3]dioxole-5-carbonyl)-piperidin-1-yl]-N-(4-oxo-3,5,7,8-tetrahydro-4H-pyrano[4,3-c]pyrimidin-2-ylmethyl)-acetamide]: the IC50 is 0.0091 ± 0.0012 µM in experiment [1], 0.129 ± 0.001 µM in experiment [3], 0.043 µM in experiment [4] and 0.346 µM in experiment [5]. The AC50 in experiment [2] worked out at 0.154 ± 0.025 µM.
In the case of `COc1ccc(C(=O)C2CCN(CC(=O)NCc3nc4c(c(=O)[nH]3)COCC4)CC2)cc1Cl` [Example 94, 2-[4-(3-Chloro-4-methoxy-benzoyl)-piperidin-1-yl]-N-(4-oxo-3,5,7,8-tetrahydro-4H-pyrano[4,3-d]pyrimidin-2-ylmethyl)-acetamide], the concentration for half-maximal inhibition (IC50) is 0.0024 ± 0.0003 µM in experiment [1], 0.029 ± 0.003 µM in experiment [3], 0.0105 ± 0.0007 µM in experiment [4] and 0.016 µM in experiment [5]. In addition, the AC50 in experiment [2] was 0.011 ± 0.002 µM.
Take `CCOc1ccc(C(=O)C2CCN(CC(=O)NCc3nc4c(c(=O)[nH]3)COCC4)CC2)cc1F` [Example 95, 2-[4-(4-Ethoxy-3-fluoro-benzoyl)-piperidin-1-yl]-N-(4-oxo-3,5,7,8-tetrahydro-4H-pyrano[4,3-c]pyrimidin-2-ylmethyl)-acetamide]: the IC50 in experiment [1] was found to be 0.0066 ± 0.0007 µM; in experiment [3], 0.038 ± 0.003 µM; in experiment [4], 0.016 ± 0.005 µM; in experiment [5] it was 0.032 ± 0.005 µM. For the same compound, the AC50 in experiment [2] was 0.026 ± 0.007 µM.
For `COc1ccc(C(=O)C2CCN(CC(=O)NCc3cc4c(c(=O)o3)COCC4)CC2)cc1` [Example 96, 2-[4-(4-methoxy-benzoyl)-piperidin-1-yl]-N-(1-oxo-5,8-dihydro-1H,6H-pyrano[3,4-c]pyran-3-ylmethyl)-acetamide], the IC50 in experiment [1] was 0.013 ± 0.003 µM; in experiment [3], 0.328 ± 0.001 µM; in experiment [4], 0.133 ± 0.031 µM; in experiment [5] it was 0.065 ± 0.023 µM. Further, the AC50 in experiment [2] is 0.024 ± 0.008 µM.

One may read the IC50 as the point on the concentration scale where inhibition reaches its midpoint. As a reminder, the AC50 is the concentration at which the activity in the assay is half-maximal.

The record behind these values is patent US9181266B2, “2-piperidin-1-yl-acetamide compounds for use as tankyrase inhibitors” (NOVARTIS AG, priority 2011, dated 2015).
